Holding throughout (assay type): cell-based, Human
In one test the test system is PC-9. In words: CCK-8 tumor cell proliferation, PC-9. To be noted: Homo sapiens; Table 15, ALK inhibitor based; PC-9; read-out: IC50 inhibiting proliferation of tumor cells, PC-9. The procedure: The tumor cells used herein were cultured in a cell culture medium listed in table 4 at 37° C. in an incubator with 5% CO2.
(§1) After 24 h, 100 μL of the inoculated cells were treated with 0.5 μL of the compounds of the present disclosure (including the compounds in Tables 1 and 3, and compounds of examples) at 10 different successively decreasing concentrations (starting at the highest concentration of 10 μM; 5-fold serial dilutions). After the cells were treated with the compounds of the present disclosure for a period of time, the cell viability detection reagent was added to the culture medium for cell viability assessment according to the instructions provided with the CCK-8 kit. […] The growth inhibition of the compounds of the present disclosure on cells was plotted by Prism Graphpad software, and the IC50 values of the compounds of the present disclosure were calculated therefrom.

A further test relates to SR. In words: CCK-8 tumor cell proliferation, SR. The conditions noted are these: Homo sapiens; Table 15, ALK inhibitor based; SR; read-out: IC50 inhibiting proliferation of tumor cells, SR. The method, boiled down:
(§2)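 Viability determined colorimetrically with CCK-8 following compound treatment. Dosing began 24 h post-plating using ten 5-fold dilutions capped at 10 μM; growth-inhibition curves yielded IC50.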

The subject of the next test is MV-4-11. In words: CCK-8 tumor cell proliferation, MV-4-11. The conditions noted are these: Homo sapiens, MV4-11; Table 15, ALK inhibitor based; MV-4-11; read-out: IC50 inhibiting proliferation of tumor cells, MV-4-11. The method, then:
(§3) The tumor cells used herein were cultured in a cell culture medium listed in table 4 at 37° C. in an incubator with 5% CO2. Prior to experimentation, all cells used were correctly identified by STR profiling, and tested negative for mycoplasma through routine screenings.
as §1, with “IC50 values of the compounds of the present disclosure (including the compounds in Tables 1 and 3, and compounds of examples) were measured using the Meilun Cell Counting Kit-8 kit from Dalian Meilun Biotech Co., Ltd. Assay details are as follows: tumor cells were seeded in a 96-well plate at a density listed in Table 5. After 24” for “After 24”

In a further test the test system is Mino. Briefly: CCK-8 tumor cell proliferation, Mino. The conditions noted are these: Homo sapiens; Table 15, ALK inhibitor based; Mino; read-out: IC50 inhibiting proliferation of tumor cells, Mino. The procedure: as §3
as §1, with “IC50 values of the compounds of the present disclosure (including the compounds in Tables 1 and 3, and compounds of examples) were measured using the Meilun Cell Counting Kit-8 kit from Dalian Meilun Biotech Co., Ltd. Assay details are as follows: tumor cells were seeded in a 96-well plate at a density listed in Table 5. After 24” for “After 24”

In a further test the test system is MDA-MB-231. Briefly: CCK-8 tumor cell proliferation, MDA-MB-231. To be noted: Homo sapiens; Table 15, ALK inhibitor based; MDA-MB-231; read-out: IC50 inhibiting proliferation of tumor cells, MDA-MB-231. The method, boiled down: as §2
In another test the test system is CAL-62. Briefly: CCK-8 tumor cell proliferation, CAL-62. Also noted: IC50 for inhibiting the proliferation of tumor cells, CAL-62: scale not given here. The conditions noted are these: for IC50 for inhibiting the proliferation of tumor cells, CAL-62: Table 8, designed based on ER inhibitors, 72 h; for pIC50: Homo sapiens, Table 18, FAK inhibitor based, CAL-62, read-out: IC50 inhibiting proliferation of tumor cells, CAL-62. The gist of the method:
as §2

A further test concerns Vcap. Briefly: CCK-8 tumor cell proliferation, Vcap. The conditions noted are these: for IC50 for inhibiting the proliferation of tumor cells, Vcap: Table 8, designed based on ER inhibitors, 96 h; for pIC50: Homo sapiens, VCaP, Table 18, FAK inhibitor based, Vcap, read-out: IC50 inhibiting proliferation of tumor cells, Vcap. The procedure:
as §3
as §1, with “IC50 values of the compounds of the present disclosure (including the compounds in Tables 1 and 3, and compounds of examples) were measured using the Meilun Cell Counting Kit-8 kit from Dalian Meilun Biotech Co., Ltd. Assay details are as follows: tumor cells were seeded in a 96-well plate at a density listed in Table 5. After 24” for “After 24”

The test system of the next test is CCRF-CEM. Briefly: CCK-8 tumor cell proliferation, CCRF-CEM. Also noted: IC50 for inhibiting the proliferation of tumor cells, CCRF-CEM: scale not given here. The conditions noted are these: Table 8, designed based on ER inhibitors; 96 h. The gist of the method:
as §2

In another test the test system is SW620. Briefly: CCK-8 tumor cell proliferation, SW620. The conditions noted are these: for pIC50: Homo sapiens, SW-620, Table 18, FAK inhibitor based, SW620, read-out: IC50 inhibiting proliferation of tumor cells, SW620; for IC50 for inhibiting the proliferation of tumor cells, SW620: Table 8, designed based on ER inhibitors, 96 h. The procedure: as §3
as §1, with “IC50 values of the compounds of the present disclosure (including the compounds in Tables 1 and 3, and compounds of examples) were measured using the Meilun Cell Counting Kit-8 kit from Dalian Meilun Biotech Co., Ltd. Assay details are as follows: tumor cells were seeded in a 96-well plate at a density listed in Table 5. After 24” for “After 24”

pIC50: −log10 of the molar value.

Experimental findings from patent US20260199323A1, “LIGAND COMPOUNDS FOR E3 UBIQUITIN LIGASE, PROTEIN DEGRADERS DEVELOPED ON BASIS OF LIGAND COMPOUNDS, AND USES THEREOF” (GLUETACS THERAPEUTICS (SHANGHAI) CO., LTD., priority 2021, published 2026) are described below.

Take `CCc1cc2c(cc1N1CCC(N3CCN(Cc4cc5c(cc4F)C(=O)N(C4CCC(=O)NC4=O)C5)CC3)CC1)C(C)(C)c1[nH]c3cc(C#N)ccc3c1C2=O` (stereo not shown) [GT-03759, 8-(4-(4-((2-(2,6-dioxopiperidin-3-yl)-6-fluoro-1-oxoisoindolin-5-yl)methyl)piperazin-1-yl)piperidin-1-yl)-9-ethyl-6,6-dimethyl-11-oxo-6,11-dihydro-5H-benzo[b]carbazole-3-carbonitrile]: the pIC50 in the test with PC-9 was 6.30 to 7.00; in the test with SR it was greater than 7.30; with MV-4-11, 6.30 to 7.00; in the test on Mino, 6.00 to 6.30.

In the case of `CCc1cc2c(cc1N1CCC(N3CCN(Cc4cccc5c4CN(C4CCC(=O)NC4=O)C5=O)CC3)CC1)C(C)(C)c1[nH]c3cc(C#N)ccc3c1C2=O` (stereo not shown) [GT-03764, 8-(4-(4-((2-(2,6-dioxopiperidin-3-yl)-1-oxoisoindolin-4-yl)methyl)piperazin-1-yl)piperidin-1-yl)-9-ethyl-6,6-dimethyl-11-oxo-6,11-dihydro-5H-benzo[b]carbazole-3-carbonitrile], the pIC50 with PC-9 was 6.30 to 7.00; with MDA-MB-231 it was 7.00 to 7.30; in the test with SR, greater than 7.30; with MV-4-11, 7.00 to 7.30; in the test with Mino, 7.00 to 7.30.

For `COc1cc(N2CCN(Cc3cc4c(cc3F)C(=O)N(C3CCC(=O)NC3=O)C4)CC2)ccc1Nc1ncc(Cl)c(Nc2ccccc2P(C)(C)=O)n1` (stereo not shown) [GT-03777, 3-(5-((4-(4-((5-chloro-4-((2-(dimethylphosphoryl)phenyl)amino)pyrimidin-2-yl)amino)-3-methoxyphenyl)piperazin-1-yl)methyl)-6-fluoro-1-oxoisoindolin-2-yl)piperidine-2,6-dione], the pIC50 in the test on SR was greater than 7.30; in the test on MV-4-11, 7.00 to 7.30.

For `COc1cc(N2CCN(Cc3cc(F)c4c(c3)CN(C3CCC(=O)NC3=O)C4=O)CC2)ccc1Nc1ncc(Cl)c(Nc2ccccc2P(C)(C)=O)n1` (stereo not shown) [GT-03778, 3-(5-((4-(4-((5-chloro-4-((2-(dimethylphosphoryl)phenyl)amino)pyrimidin-2-yl)amino)-3-methoxyphenyl)piperazin-1-yl)methyl)-7-fluoro-1-oxoisoindolin-2-yl)piperidine-2,6-dione], the pIC50 in the test with SR is greater than 7.30; with MV-4-11 it was 6.30 to 7.00.

For `COc1cc(N2CCN(Cc3cccc4c3CN(C3CCC(=O)NC3=O)C4=O)CC2)ccc1Nc1ncc(Cl)c(Nc2ccccc2P(C)(C)=O)n1` (stereo not shown) [GT-03779, 3-(4-((4-(4-((5-chloro-4-((2-(dimethylphosphoryl)phenyl)amino)pyrimidin-2-yl)amino)-3-methoxyphenyl)piperazin-1-yl)methyl)-1-oxoisoindolin-2-yl)piperidine-2,6-dione], the pIC50 is greater than 7.30 with SR and 6.30 to 7.00 with MV-4-11.

Take `COc1cc(N2CCN(Cc3ccc4c(c3)C(=O)N(C3CCC(=O)NC3=O)C4=O)CC2)ccc1Nc1ncc(Cl)c(Nc2ccccc2P(C)(C)=O)n1` (stereo not shown) [GT-03780, 5-((4-(4-((5-chloro-4-((2-(dimethylphosphoryl)phenyl)amino)pyrimidin-2-yl)amino)-3-methoxyphenyl)piperazin-1-yl)methyl)-2-(2,6-dioxopiperidin-3-yl)isoindoline-1,3-dione]: the results for the pIC50 in the test on SR and in the test on MV-4-11 were 6.30 to 7.00 and 5.30 to 6.00, respectively.

`O=C1CCC(N2C(=O)c3ccc(CBr)cc3C2=O)C(=O)N1` (stereo not shown) [GT-03855]: the “IC50 for inhibiting the proliferation of tumor cells, CAL-62” value in the test with CAL-62 is listed as “A+”. The “IC50 for inhibiting the proliferation of tumor cells, Vcap” value with Vcap is on record as “A+”. For the same compound, in the test with CCRF-CEM, the “IC50 for inhibiting the proliferation of tumor cells, CCRF-CEM” value is “A+”.

As for `CNC(=O)c1ccccc1Nc1cc(Nc2cc(C)c(N3CCN(Cc4ccc5c(c4)CN(C4CCC(=O)NC4=O)C5=O)CC3)cc2OC(C)C)ncc1C(F)(F)F` (stereo not shown) [GT-03940, 2-((2-((4-(4-((2-(2,6-dioxopiperidin-3-yl)-1-oxoisoindolin-5-yl)methyl)piperazin-1-yl)-2-isopropoxy-5-methylphenyl)amino)-5-(trifluoromethyl)pyridin-4-yl)amino)-N-methylbenzamide], the pIC50 with CAL-62 is greater than 7.30; in the test on SW620, 7.00 to 7.30; with Vcap it was 6.00 to 6.30.

For `CNC(=O)c1ccccc1Nc1cc(Nc2cc(C)c(N3CCN(Cc4ccc5c(c4F)CN(C4CCC(=O)NC4=O)C5=O)CC3)cc2OC(C)C)ncc1C(F)(F)F` (stereo not shown) [GT-03941, 2-((2-((4-(4-((2-(2,6-dioxopiperidin-3-yl)-4-fluoro-1-oxoisoindolin-5-yl)methyl)piperazin-1-yl)-2-isopropoxy-5-methylphenyl)amino)-5-(trifluoromethyl)pyridin-4-yl)amino)-N-methylbenzamide], the figures for the pIC50 with CAL-62, in the test on SW620 and in the test on Vcap were greater than 7.30, greater than 7.30 and 6.30 to 7.00, respectively.

Consider `CCC(=C(c1ccc(O)cc1)c1ccc(N2CCN(Cc3ccc4c(c3F)CN(C3CCC(=O)NC3=O)C4=O)CC2)cc1)c1ccc(O)cc1` (stereo not shown) [GT-04144, 3-(5-((4-(4-(1,2-bis(4-hydroxyphenyl)but-1-en-1-yl)phenyl)piperazin-1-yl)methyl)-4-fluoro-1-oxoisoindolin-2-yl)piperidine-2,6-dione], for which the “IC50 for inhibiting the proliferation of tumor cells, CAL-62” value with CAL-62 was “A+”. The “IC50 for inhibiting the proliferation of tumor cells, SW620” value with SW620 is recorded as “A+”. For the same compound, the “IC50 for inhibiting the proliferation of tumor cells, Vcap” value in the test on Vcap was “A+”. Moreover, in the test on CCRF-CEM, the “IC50 for inhibiting the proliferation of tumor cells, CCRF-CEM” value is listed as “A+”.

Take `CCC(=C(c1ccc(O)cc1)c1ccc(N2CCN(Cc3cc4c(cc3F)C(=O)N(C3CCC(=O)NC3=O)C4)CC2)cc1)c1ccc(O)cc1` (stereo not shown) [GT-04145, 3-(5-((4-(4-(1,2-bis(4-hydroxyphenyl)but-1-en-1-yl)phenyl)piperazin-1-yl)methyl)-6-fluoro-1-oxoisoindolin-2-yl)piperidine-2,6-dione]: in the test on CAL-62, the “IC50 for inhibiting the proliferation of tumor cells, CAL-62” value is recorded as “A+”. The “IC50 for inhibiting the proliferation of tumor cells, SW620” value in the test with SW620 was “A+”. Besides, the “IC50 for inhibiting the proliferation of tumor cells, Vcap” value in the test with Vcap is listed as “A+”. In addition, the “IC50 for inhibiting the proliferation of tumor cells, CCRF-CEM” value with CCRF-CEM is “A+”.

For `CCC(=C(c1ccc(O)cc1)c1ccc(N2CCN(Cc3cccc4c3CN(C3CCC(=O)NC3=O)C4=O)CC2)cc1)c1ccc(O)cc1` (stereo not shown) [GT-04147, 3-(4-((4-(4-(1,2-bis(4-hydroxyphenyl)but-1-en-1-yl)phenyl)piperazin-1-yl)methyl)-1-oxoisoindolin-2-yl)piperidine-2,6-dione], the “IC50 for inhibiting the proliferation of tumor cells, CAL-62” value in the test on CAL-62 is on record as “A+”. Also, the “IC50 for inhibiting the proliferation of tumor cells, Vcap” value with Vcap is reported as “A+”. Besides, the “IC50 for inhibiting the proliferation of tumor cells, CCRF-CEM” value in the test with CCRF-CEM is “A+”.

Regarding `CCC(=C(c1ccc(O)cc1)c1ccc(N2CCN(Cc3ccc4c(c3)C(=O)N(C3CCC(=O)NC3=O)C4=O)CC2)cc1)c1ccc(O)cc1` (stereo not shown) [GT-04148, 5-((4-(4-(1,2-bis(4-hydroxyphenyl)but-1-en-1-yl)phenyl)piperazin-1-yl)methyl)-2-(2,6-dioxopiperidin-3-yl)isoindoline-1,3-dione], the “IC50 for inhibiting the proliferation of tumor cells, CAL-62” value in the test with CAL-62 is listed as “A+”. The “IC50 for inhibiting the proliferation of tumor cells, Vcap” value in the test with Vcap was “A+”. Further, the “IC50 for inhibiting the proliferation of tumor cells, CCRF-CEM” value with CCRF-CEM is given as “A+”.
